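Compound exposure: 48 hours, 5 concentrations, 96-well plates. The concentration for 50% growth inhibition is given as GI50. TGI: total growth inhibition.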
Legend:
Test in all cases: NCI anticancer screen, dose series, 48 h
DMS 114 small cell lung = test system: DMS 114 small cell lung
LXFL 529 NSCLC = test system: LXFL 529 NSCLC
RXF-631 renal = test system: RXF-631 renal

Structure (SMILES) | TGI (DMS 114 small cell lung) [µM] | TGI (LXFL 529 NSCLC) [µM] | GI50 (DMS 114 small cell lung) [µM] | TGI (RXF-631 renal) [µM]
Cc1ccc(/C=C/C(=O)C(C)C)cc1 | > 100 | > 100 |  | 
O=S(=O)(O)c1cc(N=Nc2cc(S(=O)(=O)O)c3ccccc3c2O)ccc1/C=C/c1ccc(N=Nc2cc(S(=O)(=O)O)c3ccccc3c2O)cc1S(=O)(=O)O | > 1000 | > 1000 | > 1000 | 
Nc1ccc(C(=O)NN2C(=O)C(Cl)C2c2cc(Br)cc(Br)c2O)cc1 (configuration not stated) | 25.4 | > 100 |  | 
O=[N+]([O-])c1cc2c(cc1O)[nH]c1cccc([N+](=O)[O-])c12 | > 100 |  |  | 
COc1cc(C(C#N)NNC(=O)Cc2ccccc2)cc(OC)c1OC (configuration not stated) | > 100 | > 100 |  | 
C=C(CN(C)C)C(=O)c1ccc(C)cc1C | 46.6 | 26.9 |  | 36.9
CC(OC1CC(=O)CC2C(=O)C=CC(=O)C12)c1ccccc1 (configuration not stated) | 23 | 19.8 |  | 
COc1ccc([C@@H]2CC(=O)NCCCNCCCCNCCCN2)cc1 | > 100 | > 100 |  | 
CN1CCC(C(=O)NNc2ccccc2)CC1 | > 87.2 | 5.69 |  | 
CN/C=C(/c1ccc(OC)cc1)C(O)c1ccc(OC)c(OC)c1 (configuration not stated) | > 100 |  |  | > 100
Cc1ccc(C(=O)OC(C)C)cc1N=NN(C)C |  | > 100 |  | 

— PubChem BioAssay (NCI)
